{"source": "patent US5756109A", "about": "“Skin care compositions containing geranyl geraniol and retinol or retinyl esters” (Chesebrough-Pond's USA Co., Division of Conopco, Inc., priority 1996, dated 1998)", "key": {"ARAT": {"tested_on": "ARAT", "test": "In vitro microsomal esterification of retinol, ARAT (retinyl palmitate formation)", "assay_type": "biochemical, bovine", "settings": "10 micromolar retinol, 1 hour, 37° C.", "from_the_text": "It is believed that the use of retinol or esters of retinol would be preferred over retinoic acid. Retinol is an endogenous compound which occurs naturally in the human body and is essential for normal epithelial cell differentiation. Retinol is also considered much safer than retinoic acid. Esters of retinol hydrolyze in-vivo to produce retinol. […] These esterification reactions are very efficient in keratinocytes--the majority (95%) of cellular retinoids are in the form of retinyl fatty esters.\n(§1) Microsomes are obtained as described in: J. C."}, "retinol esterification": {"tested_on": "retinol esterification", "test": "In vitro microsomal esterification of retinol, ARAT and LRAT together (statements in words)", "assay_type": "biochemical, bovine", "settings": "compared with farnesol", "from_the_text": "as §1"}, "Human keratinocytes [1]": {"tested_on": "Human keratinocytes", "test": "3H-thymidine incorporation, keratinocyte proliferation (Example 3)", "assay_type": "cell-based", "settings": "for activity at […]: Homo sapiens, Keratinocyte, 250 nM, read-out: % Control (thymidine incorporation)", "experimental": "(§2) Human keratinocytes, isolated from neonatal foreskin by trypsin treatment were grown in Dulbecco Modification Eagle (DME) Hams F12 (1:1) medium/10% fetal calf serum in the presence of irradiated 3T3 mouse fibroblasts for establishing dividing keratinocyte colonies. Cells were grown under the above condition until their second passage and kept frozen for future use. Frozen second passage keratinocytes were thawed and plated into the above medium and grown for five days before they were switched to a serum-free MCDB 153-based medium keratinocyte growth medium (KGM) from Clonetics Corporation, San Diego, Calif., containing 0.15 mM Ca, or keratinocyte serum-free media (KSFM) from GIBCO containing 0.09 mM Ca). On day 7, when the cells were 80-90% confluent, they were trypsinized and plated in the serum-free medium for the various experiments.\nThe incorporation of ^3 H-thymidine by cultured keratinocytes was used as an assay of keratinocyte proliferation. Thymidine is one of four deoxynucleosides which are the monomeric units of DNA, the universal library of genetic information in the animal kingdom. Prior to cell division of a somatic cell such as a keratinocyte, the complete genome of the cell undergoing cell division is replicated. This involves large scale DNA synthesis by the cell and enables both daughter cells to receive identical copies of the genetic material. When 3H-thymidine is included in the culture media of keratinocytes which are synthesizing DNA in preparation for cell division then the labelled nucleoside is incorporated into the newly synthesized DNA. The extent of incorporation of ^3 H-thymidine into a population of cells is proportional to the rate of DNA synthesis by this population of cells and therefore an indication of their cellular proliferation.\nFor Example 3, the following procedure was employed to measure thymidine incorporation:\nHuman keratinocytes were plated in 24-well plates at a density of 40,000 cells/well in 1 ml keratinocyte growth media. The cells were allowed to grow until they were 60-70% confluent (approx. 4 days), after which they were treated (in triplicate) with test agents in media for 4 hours. Tritiated thymidine (1 microcurie/ml) was then added, and the cells were incubated for an additional 18 hrs. The medium was removed and the cells were incubated for 30 minutes with ice cold 10% trichloroccetic acid. The cells were then washed 5× with 5% TCA and dissolved in 0.5 ml 0.1M NaOH. After neutralization with 0.1M HCl, aliquots were removed to measure protein and radioactivity by liquid scintillation counting.\n^3 H-Thymidine incorporation was measured according to the procedure described in Materials and Methods section above."}, "TGase I": {"tested_on": "TGase I", "test": "Transglutaminase (TGase I) ELISA normalized to DNA, keratinocyte differentiation (Example 1)", "assay_type": "cell-based, human", "settings": "[…]10^-7, […]10^-8 and […]10^-9 M", "experimental": "as §2\nDuring the process of terminal differentiation in the epidermis, a 15 nm thick layer of protein, known as the cornified envelope (CE) is formed on the inner surface of the cell periphery. The CE is composed of numerous distinct proteins which have been cross-linked together by the formation of N^E -(γ-glutamyl) lysine isodipeptide bonds catalyzed by the action of at least two different transglutaminases (TGases) expressed in the epidermis. TGase I is expressed in abundance in the differentiated layers of the epidermis, especially the granular layer, but is absent in the undifferentiated basal epidermis. […]\nKeratinocytes (cultured as described above) were plated in 96 well plates at a density of 3,000 cells per well in 200 μl media. […] The absorbance of samples was read at 492 nm in the plate reader. […] TGase levels were determined by subtracting background from the readings from each treatment and determining mean±s.d. for the replicates exposed to both Ab.\nThe level of TGase-1 detected after treatment of the cells could be influenced by cell number, i.e., the greater the number of cells the greater the level of TGase-1 detected. […]"}, "Human keratinocytes [2]": {"tested_on": "Human keratinocytes", "test": "3H-thymidine incorporation, keratinocyte proliferation (Example 1)", "assay_type": "cell-based", "settings": "[…]10^-7, […]10^-8 and […]10^-9 M; over ethanol control and retinol treatments", "experimental": "as §2\nThe incorporation of ^3 H-thymidine by cultured keratinocytes was used as an assay of keratinocyte proliferation. […]\nKeratinocytes (that were cultured as described above) were plated in 24 well plates at a density of about 20,000 cells per well in 1 ml media. […] Disintegrations per minute (DPM) from ^3 H labelling of DNA was determined by liquid scintillation counting of 900 μl of the cell preparation. Thymidine incorporation results were expressed as DPM/μg protein."}}, "note": "“Also recorded” adds a separate entry of the source. Where two headings read alike, the source gives them in different places."}
{"smiles": "CC(C)=CCCC(C)=CCCC(C)=CCO", "note": "[Farnesol, farnesol]", "values": [{"measurement": "% INHIB. ARAT", "setting": "ARAT; 10 μM", "result": 20, "unit": "%"}, {"measurement": "% INHIB. ARAT", "setting": "ARAT; 100 μM", "result": 43, "unit": "%"}]}
{"smiles": "CC(C)=CCC/C(C)=C/CC/C(C)=C/CC/C(C)=C/CO", "note": "[Geranyl Geraniol, geranyl geraniol]", "values": [{"measurement": "inhibition of retinol esterification (in words)", "setting": "retinol esterification", "result": "substantially more potent esterification inhibitor, than farnesol; also recorded: substantially more potent at inhibiting retinol esterification than other terpenes, e.g., farnesol"}, {"measurement": "% INHIB. ARAT", "setting": "ARAT; 10 μM", "result": 38, "unit": "%"}, {"measurement": "% INHIB. ARAT", "setting": "ARAT; 100 μM", "result": 81, "unit": "%"}, {"measurement": "proliferation enhancing effect of retinol (in words)", "setting": "Human keratinocytes [1]; 10 nM geranyl geraniol with 250 nM retinol, compared with retinoic acid", "result": "significantly increase the proliferation enhancing effect of retinol to a level similar to that which can be achieved with a comparable amount of retinoic acid"}]}
{"smiles": "CC1=C(/C=C/C(C)=C/C=C/C(C)=C/C(=O)O)C(C)(C)CCC1", "note": "[RA, Retinoic Acid]", "values": [{"measurement": "decrease in transglutaminase level (in words)", "setting": "TGase I", "result": "dose dependent"}, {"measurement": "keratinocyte differentiation (in words)", "setting": "TGase I; over ethanol control and corresponding retinol treatments", "result": "decreased keratinocyte differentiation"}, {"measurement": "keratinocyte proliferation (in words)", "setting": "Human keratinocytes [2]", "result": "significantly increased keratinocyte proliferation"}, {"measurement": "activity at […]", "setting": "Human keratinocytes [1]; Experiment #1", "result": 156, "unit": "%"}, {"measurement": "activity at […]", "setting": "Human keratinocytes [1]; Experiment #2", "result": 163, "unit": "%"}]}
{"smiles": "CC1=C(/C=C/C(C)=C/C=C/C(C)=C/CO)C(C)(C)CCC1", "note": "[ROH, Retinol]", "values": [{"measurement": "decrease in transglutaminase level (in words)", "setting": "TGase I", "result": "dose dependent"}, {"measurement": "activity at […]", "setting": "Human keratinocytes [1]; Experiment #1", "result": 108, "unit": "%"}, {"measurement": "activity at […]", "setting": "Human keratinocytes [1]; Experiment #2", "result": 107, "unit": "%"}]}
